Measured values as given in patent US6544989B2, “Benzazoles: benzoxazole, benzthiazole and benzimidazole derivatives” (Syngenta Limited, priority 1998, dated 2003).

What was measured:
Uncinula necator = experiment: Fungicidal test, Uncinula necator (UNCINE) on vines, PRCO; type: in vivo; conditions: METHOD 2 (unbanded)
Puccinia recondita = experiment: Fungicidal test, Puccinia recondita (PUCCRT) on wheat, PRCO; type: in vivo; conditions: METHOD 2 (unbanded)
Septoria nodorum = experiment: Fungicidal test, Septoria nodorum (LEPTNO) on wheat, PRCO; type: in vivo; conditions: METHOD 2 (unbanded)
Pyricularia oryzae = type: in vivo; conditions: METHOD 2 (unbanded)
[1] = system: Phytophthora infestans lycopersici; type: in vivo; conditions: METHOD 2 (unbanded)
Meloidogyne incognita = experiment: Nematode test, J2 infective juveniles of Meloidogyne incognita, mortality; conditions: 12.5 ppm; J2 infective juveniles suspended in solution; mortality after three days
Protocol: The activities of individual compounds of formula (I) were determined using a variety of pests. With the exception of nematodes, the pests were treated with a liquid composition containing 500 parts per million (ppm) by weight of a compound unless otherwise stated. Each composition was made by dissolving the compound in an acetone and ethanol (50:50 by volume) mixture and diluting the solution with water containing 0.05% by volume of a wetting agent, SYNPERONIC NP8, until the liquid composition contained the required concentration of the compound.
The test procedure for nematodes involved dissolving the compound in an acetone and ethanol (50:50 by volume) mixture and diluting the solution with water to obtain a final concentration of the compound of 12.5 ppm. J2 infective juveniles of Meloidogyne incognita were suspended in the solution in a glass vial and mortality assessed after a period of three days.

Venturia inaequalis = experiment: Fungicidal test, Venturia inaequalis (VENTIN) on apples, PRCO; type: in vivo; conditions: METHOD 2 (unbanded)
[2] = system: Erysiphe graminis f.sp. tritici; experiment: Fungicidal test, Erysiphe graminis f.sp. tritici (ERYSGT) on wheat, PRCO; type: in vivo; conditions: METHOD 2 (unbanded)

| SMILES | UNCINE 1 d Prot/Foir PRCO (Uncinula necator) | PUCCRT 1 d Prot/Foir PRCO (Puccinia recondita) | LEPTNO 1 d Prot/Foir PRCO (Septoria nodorum) | PYRIOR 1 d Prot/Foir PRCO (Pyricularia oryzae) | PHYTIN 1 d Prot/Foir PRCO [1] | MELGIN = Meloidogyne incognita, grading of mortality (score) (Meloidogyne incognita) | VENTIN 1 d Prot/Foir PRCO (Venturia inaequalis) | ERYSGT 1 d Prot/Foir PRCO [2] | ERYSGT 6 hr Prot/Foir PRCO [2] |
| --- | --- | --- | --- | --- | --- | --- | --- | --- | --- |
| CCCc1nc2ccc(CC(=O)Nc3snc(C)c3Cl)cc2[nH]1 [4(A43)] | 35 | 31 | 0 | 38 | 0 |  |  |  |  |
| Cc1nsc(NC(=O)Cc2ccc3oc(CSc4ccccc4)nc3c2)c1Cl [173(A3)] | −12 | 63 | 2 |  | 77 | 0 (0 indicates less than 40% mortality) | 50 | 16 |  |
| COCc1nc2cc(CC(=O)Nc3snc(C)c3Cl)ccc2o1 [130(A3)] | 86 | 100 | 21 | 93 |  | 0 (0 indicates less than 40% mortality) | 60 | 87 |  |
| Cc1nsc(NC(=O)Cc2ccc3oc(C4CCCCC4)nc3c2)c1Cl [35((A3)] | 100 |  |  | 98 |  |  | 70 |  |  |
| Cc1nsc(NC(=O)Cc2ccc3oc(C(C)Cl)nc3c2)c1Cl (racemic) [93(A3)] | 10 | 38 | 24 |  | 49 | 0 (0 indicates less than 40% mortality) | 6 | 32 |  |
| Cc1nsc(NC(=O)Cc2ccc3oc(-c4cccs4)nc3c2)c1Cl [330(A3)] | 14 | 99 | 37 |  | 99 | 0 (0 indicates less than 40% mortality) | 6 | 87 |  |
| Cc1nsc(NC(=O)Cc2ccc3oc(CC4CCCC4)nc3c2)c1Cl [42(A3)] | 100 | 99 | 11 |  | 100 | 0 (0 indicates less than 40% mortality) | 74 | 92 | 92 |
| Cc1nsc(NC(=O)Cc2ccc3oc(-c4ccncc4)nc3c2)c1Cl [339((A3)] | 26 |  |  | 33 |  |  | 8 |  |  |
| Cc1nsc(NC(=O)Cc2ccc3oc(C(F)(F)F)nc3c2)c1Cl [75(A3)] | 53 | 94 | 27 | 78 |  | 0 (0 indicates less than 40% mortality) | 15 | 90 |  |
| Cc1nsc(NC(=O)Cc2ccc3oc(C(F)(F)C(F)F)nc3c2)c1Cl [79(A3)] | 90 | 100 | 14 | 98 |  | 0 (0 indicates less than 40% mortality) | 88 | 100 |  |
| CCCC(C)c1nc2cc(CC(=O)Nc3snc(C)c3Cl)ccc2o1 (centres unmarked) [12(A3)] | 100 | 100 | 17 |  | 100 | 9 (9 indicates 80-100% mortality) | 63 | 95 |  |
| Cc1nsc(N(CC(F)(F)F)C(=O)Cc2ccc3oc(CC(C)(C)C)nc3c2)c1Cl [15(H3)] | 63 | 29 | 2 | 46 |  | 0 (0 indicates less than 40% mortality) | 0 | 16 |  |
| Cc1nsc(NC(=O)Cc2ccc3oc(C4(C)CCCCC4)nc3c2)c1Cl [36(A3)] | 99 | 91 | 2 |  | 100 | 0 (0 indicates less than 40% mortality) | 44 | 72 |  |
| CCC(Cl)c1nc2cc(CC(=O)Nc3snc(C)c3Cl)ccc2o1 (racemic) [95(A3)] | 100 | 100 | 8 | 96 |  | 0 (0 indicates less than 40% mortality) | 98 | 68 |  |
| Cc1nsc(NC(=O)Cc2ccc3oc(CC(C)(C)C)nc3c2)c1C#N [15(A5)] | 83 | 84 | −2 | 81 | 45 | 0 (0 indicates less than 40% mortality) | 3 | 15 |  |
| CCc1nsc(NC(=O)Cc2ccc3oc(CC(C)(C)C)nc3c2)c1Cl [15(A8)] | 100 |  | −2 | 81 | 99 | 0 (0 indicates less than 40% mortality) | 24 | 80 |  |
| Cc1nsc(NC(=O)Cc2ccc3oc(-c4c(Cl)cc(C(F)(F)F)cc4Cl)nc3c2)c1Cl [244(A3)] |  | 84 | −2 | −2 |  | 0 (0 indicates less than 40% mortality) | 45 | 3 |  |
| CCc1nsc(NC(=O)Cc2ccc3oc(C)nc3c2)c1Cl [2(A8)] | 74 | 100 | 9 | 75 | 74 | 0 (0 indicates less than 40% mortality) | 8 | 54 |  |
| Cc1nsc(NC(=O)Cc2ccc3oc(C(C)C#N)nc3c2)c1Cl (racemic) [115(A3)] | 2 | 45 | 8 | 5 |  | 0 (0 indicates less than 40% mortality) | 15 | −3 |  |
| Cc1nsc(NC(=O)Cc2ccc3oc(C(c4ccccc4)c4ccccc4)nc3c2)c1Cl [246(A3)] | −7 | 13 | 27 |  | 79 | 0 (0 indicates less than 40% mortality) | 13 | 16 |  |
| Cc1nsc(NC(=O)Cc2ccc3oc(C=Cc4ccc([N+](=O)[O-])cc4)nc3c2)c1Cl [63(A3)] | 14 | 69 | 2 |  | 66 |  | 13 | 40 |  |
| COc1ccccc1-c1nc2cc(CC(=O)Nc3snc(C)c3Cl)ccc2o1 [305(A3)] | 19 | 81 | −2 |  | 74 | 0 (0 indicates less than 40% mortality) | −6 | 16 | 16 |
| Cc1nsc(NC(=O)Cc2ccc3oc(-c4c(F)c(F)c(F)c(F)c4F)nc3c2)c1Cl [287(A3)] | 20 | 94 | −2 | 19 | 3 | 0 (0 indicates less than 40% mortality) | 8 | 34 |  |
| Cc1nsc(NC(=O)Cc2ccc3oc(C4CC4)nc3c2)c1Cl [21(A3)] | 44 | 100 | 14 | 92 |  | 0 (0 indicates less than 40% mortality) | 50 | 35 |  |
| Cc1nsc(NC(=O)Cc2ccc3oc(-c4ccccc4Cl)nc3c2)c1Cl [253(A3)] | 100 | 99 | 8 |  | 98 | 0 (0 indicates less than 40% mortality) | 34 | 94 | 94 |
| Cc1nsc(NC(=O)Cc2ccc3oc(Cc4c(F)c(F)c(F)c(F)c4F)nc3c2)c1Cl [239(A3)] | 51 | 3 |  | 11 |  | 0 (0 indicates less than 40% mortality) | 5 | 23 |  |
| Cc1nsc(NC(=O)Cc2ccc3nc(CC(C)(C)C)[nH]c3c2)c1Cl [15(A43)] | 63 |  | 0 | 63 | 80 |  |  |  |  |
